Experimental data taken from US12048317B2, “Astaxanthin-containing condiment and a preparation method therefor” (South China University of Technology, priority 2018, dated 2024).

How the values were obtained:
Format in all cases: physicochemical
[1] = Encapsulation rate of the microcapsule powder (total pigment vs pigment on the surface); conditions: Example 4 microcapsules
Protocol: (§1) This example selected the following optimal proportion: Supernatant (V, mL):gelatin (W, g):porous starch (W, g)=400:15:6 (core material (W, g):wall material (W, g)=3.95:21); the microencapsulation temperature was 40° C., and the microencapsulation time was 2 h. The encapsulation rate was calculated by detecting the total amount of pigment in the microcapsule powder and the amount of pigment on the surface (refer to Gomez-Estaca J. Food Hydrocolloids, 2016, 61:155-162). The amount of pigment on the surface was obtained by directly adding acetone for extraction. The total amount of pigment in the microcapsule powder was obtained as follows: dissolving the microcapsule powder in distilled water, shaking and then adding acetone thereto, mixing uniformly and then centrifuging, using petroleum ether to back-extract the pigment, and taking the upper layer of pigment-petroleum ether to measure the absorbance A with a spectrophotometer; if the pigment in the lower layer of acetone was not extracted completely, petroleum ether was added repeatedly until the organic solvent in the lower layer was colorless. Drug-loading rate refers to the amount of pigment contained in each gram of the microcapsule powder.

[2] = Concentration of astaxanthin in the aqueous supernatant after glass-bead wall breaking of P. rhodozyma (spectrophotometer); conditions: water, 1 mm glass beads 500 g/L, 22° C., 150 rpm
Protocol: Adding P. rhodozyma to 20 mL of water to obtain yeast suspensions with concentrations of 20 g/L, 50 g/L and 100 g/L (dry weight), adding glass beads with a particle size of 1 mm to the yeast suspensions to make the content of the glass beads in the yeast suspensions 500 g/L, and then shaking to break walls in a shaker at 22° C. at a stirring speed of 150 rpm for 48 h. After breaking the wall, centrifuging at 10000 rpm for 10 min, and then collecting the precipitate and supernatant. Extracting astaxanthin in the supernatant with acetone and back-extracting it with petroleum ether, extracting the astaxanthin in the precipitate with acetone, and then using a spectrophotometer to detect the content of astaxanthin in the supernatant and precipitate. Using the amount of astaxanthin extracted by the acid-heat treatment method as a control, i.e., regarding the amount of astaxanthin extracted by the acid-heat treatment method by default as the total amount of astaxanthin for the calculation of the astaxanthin extraction rate.
Adding P. rhodozyma to 20 mL of water to obtain a yeast suspension with a concentration of 20 g/L (dry weight), adding glass beads with a particle size of 1 mm to the yeast suspension to make the content of the glass beads in the yeast suspension 500 g/L, and then shaking to break walls in a shaker at 22° C. at a stirring speed of 150 rpm for 6 h, 24 h and 48 h, respectively. After breaking the wall, centrifuging at 10000 rpm for 10 min, and then collecting the precipitate and supernatant. Extracting astaxanthin in the supernatant with acetone and back-extracting it with petroleum ether, extracting the astaxanthin in the precipitate with acetone, and then using a spectrophotometer to detect the content of astaxanthin in the supernatant and precipitate. Using the amount of astaxanthin extracted by the acid-heat treatment method as a control, i.e., regarding the amount of astaxanthin extracted by the acid-heat treatment method by default as the total amount of astaxanthin for the calculation of the astaxanthin extraction rate.

[3] = Drug-loading rate (amount of pigment contained in each gram of the microcapsule powder); conditions: Example 4 microcapsules
Protocol: as §1

Compound: CC1=C(/C=C/C(C)=C/C=C/C(C)=C/C=C/C=C(C)/C=C/C=C(C)/C=C/C2=C(C)C(=O)[C@@H](O)CC2(C)C)C(C)(C)C[C@H](O)C1=O [astaxanthin]
- encapsulation rate of astaxanthin ([1]; concentration of yeast 20 g/L): 87.8%
- encapsulation rate of astaxanthin ([1]; concentration of yeast 50 g/L): 78.69%
- encapsulation rate of astaxanthin ([1]; concentration of yeast 100 g/L): 75.62%
- concentration of astaxanthin in the supernatant after the wall breaking ([2]; P. rhodozyma 20 g/L, 6 h): 93.72 µg/mL
- concentration of astaxanthin in the supernatant after the wall breaking ([2]; P. rhodozyma 20 g/L, 24 h): 306.43 µg/mL
- concentration of astaxanthin in the supernatant after the wall breaking ([2]; P. rhodozyma 20 g/L, 48 h): 459.57 µg/mL
- concentration of astaxanthin in the supernatant after the wall breaking ([2]; P. rhodozyma 50 g/L, 48 h): 843.06 µg/mL
- concentration of astaxanthin in the supernatant after the wall breaking ([2]; P. rhodozyma 100 g/L, 48 h): 1043.17 µg/mL
- drug-loading rate of astaxanthin ([3]; concentration of yeast 20 g/L): 3.45 mg/g
- drug-loading rate of astaxanthin ([3]; concentration of yeast 50 g/L): 6.79 mg/g
- drug-loading rate of astaxanthin ([3]; concentration of yeast 100 g/L): 10.42 mg/g
